Laboratory results published in ChEMBL document CHEMBL4196089, “Design, synthesis, biological evaluation and in vivo testing of dual phosphodiesterase 5 (PDE5) and histone deacetylase 6 (HDAC6)-selective inhibitors for the treatment of Alzheimer's disease” (Eur J Med Chem, 2018).

Experiments:
[1] = cells; details: Homo sapiens, SH-SY5Y, 2 h, read-out: FC
[2] = biological target: cGMP-specific 3',5'-cyclic phosphodiesterase (Homo sapiens, UniProt O76074); assay: Inhibition of full length human recombinant N-terminal GST-tagged PDE5A1 expressed in baculovirus infected sf9 cells using cGMP as substrate after 30 mins by fluorescence assay
[3] = cells; details: Homo sapiens, SH-SY5Y, 2 h, read-out: FC; remark: listed apart in the source
[4] = biological target: Histone deacetylase 1 (Homo sapiens, UniProt Q13547); assay: Inhibition of full length human recombinant C-terminal FLAG/His-tagged HDAC1 expressed in baculovirus infected sf9 cells using fluorogenic HDAC substrate 3 after 30 mins by fluorescence assay
Chain of Histone deacetylase 1 (Q13547 whole entry): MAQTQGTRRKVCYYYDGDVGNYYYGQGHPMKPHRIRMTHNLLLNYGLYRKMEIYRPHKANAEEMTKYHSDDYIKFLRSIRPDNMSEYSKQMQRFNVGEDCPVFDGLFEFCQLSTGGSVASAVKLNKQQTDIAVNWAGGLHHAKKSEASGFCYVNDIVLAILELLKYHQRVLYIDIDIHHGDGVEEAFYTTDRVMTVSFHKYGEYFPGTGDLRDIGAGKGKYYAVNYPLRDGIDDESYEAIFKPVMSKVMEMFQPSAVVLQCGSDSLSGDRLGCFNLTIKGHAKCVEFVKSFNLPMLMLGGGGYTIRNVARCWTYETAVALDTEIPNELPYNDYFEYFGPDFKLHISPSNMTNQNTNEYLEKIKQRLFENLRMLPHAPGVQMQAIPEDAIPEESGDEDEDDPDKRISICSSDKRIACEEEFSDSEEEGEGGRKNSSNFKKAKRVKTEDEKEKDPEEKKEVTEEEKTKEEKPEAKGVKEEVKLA

[5] = Cytotoxicity against human THLE2 cells after 72 hrs by vialight cell proliferation assay; format: cell-based, THLE-2; details: read-out: LC50
[6] = Effective permeability of the compound at 10 uM after 18 hrs by LC-MS/MS based PAMPA; format: ADME; details: read-out: Peff
[7] = biological target: T1, Protein deacetylase HDAC6 (Homo sapiens, UniProt Q9UBN7); assay: Inhibition of full length human recombinant N-terminal GST-tagged HDAC6 expressed in baculovirus infected sf9 cells using fluorogenic HDAC substrate 3 after 30 mins by fluorescence assay
T1 sequence (Q9UBN7 whole entry): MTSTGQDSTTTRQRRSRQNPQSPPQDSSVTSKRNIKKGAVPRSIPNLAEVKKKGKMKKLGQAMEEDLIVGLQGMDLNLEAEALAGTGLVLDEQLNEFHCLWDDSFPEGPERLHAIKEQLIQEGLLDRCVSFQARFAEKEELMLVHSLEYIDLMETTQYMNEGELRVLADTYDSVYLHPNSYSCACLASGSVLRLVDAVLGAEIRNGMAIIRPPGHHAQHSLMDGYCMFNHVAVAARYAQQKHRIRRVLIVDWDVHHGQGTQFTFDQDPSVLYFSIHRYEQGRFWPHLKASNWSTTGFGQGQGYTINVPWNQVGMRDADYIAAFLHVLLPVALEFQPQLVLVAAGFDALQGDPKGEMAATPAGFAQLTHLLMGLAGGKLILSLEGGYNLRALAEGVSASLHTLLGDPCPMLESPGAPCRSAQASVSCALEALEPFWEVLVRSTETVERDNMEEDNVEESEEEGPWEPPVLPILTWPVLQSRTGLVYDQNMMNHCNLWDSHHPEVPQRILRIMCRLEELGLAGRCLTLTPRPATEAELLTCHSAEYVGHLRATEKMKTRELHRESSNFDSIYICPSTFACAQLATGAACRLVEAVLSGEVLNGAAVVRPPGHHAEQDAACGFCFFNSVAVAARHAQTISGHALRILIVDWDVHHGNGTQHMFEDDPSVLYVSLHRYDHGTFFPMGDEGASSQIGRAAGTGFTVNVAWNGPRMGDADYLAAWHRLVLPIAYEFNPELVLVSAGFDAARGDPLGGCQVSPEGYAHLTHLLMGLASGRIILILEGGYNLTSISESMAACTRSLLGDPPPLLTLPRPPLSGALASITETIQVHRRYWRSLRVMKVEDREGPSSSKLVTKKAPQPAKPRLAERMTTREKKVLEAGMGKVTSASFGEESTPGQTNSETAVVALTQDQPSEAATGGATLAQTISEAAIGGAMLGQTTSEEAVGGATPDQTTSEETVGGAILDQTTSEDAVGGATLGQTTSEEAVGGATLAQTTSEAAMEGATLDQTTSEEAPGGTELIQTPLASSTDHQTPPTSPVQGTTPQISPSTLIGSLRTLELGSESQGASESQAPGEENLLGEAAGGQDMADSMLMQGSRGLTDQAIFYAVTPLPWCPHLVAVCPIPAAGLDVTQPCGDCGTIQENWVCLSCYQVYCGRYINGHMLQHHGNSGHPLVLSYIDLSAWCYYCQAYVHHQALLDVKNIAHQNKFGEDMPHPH

[8] = biological target: Histone deacetylase 2 (Homo sapiens, UniProt Q92769); assay: Inhibition of full length human recombinant C-terminal His-tagged HDAC2 expressed in baculovirus infected sf9 cells using fluorogenic HDAC substrate 3 after 30 mins by fluorescence assay
Chain of Histone deacetylase 2 (Q92769 whole entry): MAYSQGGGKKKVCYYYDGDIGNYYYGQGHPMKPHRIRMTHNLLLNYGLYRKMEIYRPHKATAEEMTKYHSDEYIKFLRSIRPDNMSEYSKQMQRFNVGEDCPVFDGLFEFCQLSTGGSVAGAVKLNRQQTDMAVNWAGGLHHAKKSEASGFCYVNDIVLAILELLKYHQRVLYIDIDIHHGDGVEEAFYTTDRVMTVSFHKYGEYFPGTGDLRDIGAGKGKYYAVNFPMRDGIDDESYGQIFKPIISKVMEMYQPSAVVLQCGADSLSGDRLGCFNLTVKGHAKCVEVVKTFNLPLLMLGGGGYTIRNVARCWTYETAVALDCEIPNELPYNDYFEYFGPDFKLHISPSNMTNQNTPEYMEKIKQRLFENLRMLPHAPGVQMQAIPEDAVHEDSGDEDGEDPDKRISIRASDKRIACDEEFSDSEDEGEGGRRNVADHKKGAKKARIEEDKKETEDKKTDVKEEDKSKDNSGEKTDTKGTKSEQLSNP

[9] = cells; details: Homo sapiens, SH-SY5Y, 2 h, read-out: FC; remark: listed apart in the source

SMILES: CCCc1nc(C)c2c(=O)[nH]c(-c3cc(-c4ccc(C(=O)NO)cc4)ccc3OCC)nn12
- fold induction at 1 µM [1]: 2.8
- IC50 [2]: 2 nM
- fold induction at 0.1 µM [3]: 1.3
- IC50 [4]: 4100 nM
- CC50 at 72 h [5]: > 100000 nM
- Papp at 18 h, 10 µM [6]: 2.7 ×10⁻⁶ cm/s
- IC50 [7]: 326 nM
- IC50 [8]: > 20000 nM
- fold induction at 0.5 µM [9]: 2.3
